Experimental data taken from patent publication US9012443B2 (Amgen Inc., priority 2011, dated 2015).
pIC50: −log10 of the molar value. Like-named read-outs stand apart in the source and are kept apart here.

Columns and labels:
Nav 1.7 = Nav 1.7 (Homo sapiens (Human), UniProt Q15858); experiment: Nav 1.7 in vitro PX assay (PatchXpress whole cell voltage clamp); assay type: cell-based; conditions: 293 cells, human Nav1.7, partially inactivated state; read-out: Nav1.7 PX IC50 IP
In short: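 Partially inactivated channel state (holding potential for 20–50% inactivation) probed in human Nav1.7-transfected 293 cells by automated patch clamp, test pulse −10 mV for 20 msec.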

Nav 1.5 = Nav 1.5 (Homo sapiens (Human), UniProt Q14524); experiment: Nav 1.5 in vitro PX assay (PatchXpress whole cell voltage clamp); assay type: cell-based
Chain of Nav 1.5 (Q14524 whole entry): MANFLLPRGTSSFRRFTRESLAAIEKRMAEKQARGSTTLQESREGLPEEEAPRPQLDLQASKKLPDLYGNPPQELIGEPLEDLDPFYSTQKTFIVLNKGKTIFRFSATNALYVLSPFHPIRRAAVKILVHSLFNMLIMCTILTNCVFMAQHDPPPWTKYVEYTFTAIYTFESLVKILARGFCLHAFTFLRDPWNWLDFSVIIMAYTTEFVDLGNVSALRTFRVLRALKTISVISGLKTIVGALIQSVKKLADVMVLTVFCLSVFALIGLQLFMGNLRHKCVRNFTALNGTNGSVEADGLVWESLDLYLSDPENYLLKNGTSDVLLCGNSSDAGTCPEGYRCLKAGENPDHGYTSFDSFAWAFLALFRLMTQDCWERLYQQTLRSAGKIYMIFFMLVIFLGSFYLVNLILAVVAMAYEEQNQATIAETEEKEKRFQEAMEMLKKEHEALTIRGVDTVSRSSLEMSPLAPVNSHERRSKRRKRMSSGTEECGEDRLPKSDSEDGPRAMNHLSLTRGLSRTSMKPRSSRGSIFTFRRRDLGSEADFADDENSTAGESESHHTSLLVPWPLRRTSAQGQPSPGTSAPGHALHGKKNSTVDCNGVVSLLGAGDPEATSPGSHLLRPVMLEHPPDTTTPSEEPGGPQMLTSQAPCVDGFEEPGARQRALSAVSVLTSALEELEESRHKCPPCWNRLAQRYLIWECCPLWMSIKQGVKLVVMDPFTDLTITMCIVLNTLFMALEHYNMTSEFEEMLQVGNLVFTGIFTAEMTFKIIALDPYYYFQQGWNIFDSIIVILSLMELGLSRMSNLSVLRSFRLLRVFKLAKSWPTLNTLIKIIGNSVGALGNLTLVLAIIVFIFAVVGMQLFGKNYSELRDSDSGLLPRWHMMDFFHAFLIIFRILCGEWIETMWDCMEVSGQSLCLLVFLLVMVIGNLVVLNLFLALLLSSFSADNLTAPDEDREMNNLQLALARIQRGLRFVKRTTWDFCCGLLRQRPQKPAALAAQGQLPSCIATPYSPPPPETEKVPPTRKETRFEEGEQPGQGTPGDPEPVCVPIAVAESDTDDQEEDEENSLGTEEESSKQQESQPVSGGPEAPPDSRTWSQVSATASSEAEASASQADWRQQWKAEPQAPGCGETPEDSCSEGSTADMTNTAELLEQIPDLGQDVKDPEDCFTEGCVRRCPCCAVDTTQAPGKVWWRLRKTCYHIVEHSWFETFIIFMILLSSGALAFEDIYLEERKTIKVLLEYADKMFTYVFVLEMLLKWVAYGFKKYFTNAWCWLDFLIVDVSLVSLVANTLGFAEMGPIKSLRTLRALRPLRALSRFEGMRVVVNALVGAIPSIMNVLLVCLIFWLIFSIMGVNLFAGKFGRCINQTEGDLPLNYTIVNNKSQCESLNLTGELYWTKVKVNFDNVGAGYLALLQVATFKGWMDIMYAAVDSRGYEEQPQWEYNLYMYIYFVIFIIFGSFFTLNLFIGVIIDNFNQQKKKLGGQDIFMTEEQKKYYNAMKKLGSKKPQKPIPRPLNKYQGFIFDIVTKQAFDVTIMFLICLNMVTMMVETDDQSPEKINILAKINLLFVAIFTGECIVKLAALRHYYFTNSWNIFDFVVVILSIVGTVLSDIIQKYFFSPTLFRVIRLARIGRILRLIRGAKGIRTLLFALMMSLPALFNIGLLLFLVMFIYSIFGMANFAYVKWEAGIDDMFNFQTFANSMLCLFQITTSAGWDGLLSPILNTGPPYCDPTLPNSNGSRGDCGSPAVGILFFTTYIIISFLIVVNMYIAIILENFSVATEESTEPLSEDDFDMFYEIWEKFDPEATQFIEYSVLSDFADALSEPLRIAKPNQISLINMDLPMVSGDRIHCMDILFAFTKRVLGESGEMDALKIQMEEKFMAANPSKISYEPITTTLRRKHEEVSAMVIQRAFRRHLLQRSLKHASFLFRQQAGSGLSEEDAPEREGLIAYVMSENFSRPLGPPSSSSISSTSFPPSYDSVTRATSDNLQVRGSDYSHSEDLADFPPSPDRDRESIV
In short: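 HEK293 cells stably expressing Nav 1.5, whole-cell voltage clamp held at −50 mV; 20 msec test pulses to 0 mV at 0.1 Hz, each preceded by a step to −120 mV.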

[1] = 293 cells stably transfected with Nav 1.5, second part of table, read-out: Nav1.5 PX IC50

Chain of Nav 1.7 (Q15858 whole entry): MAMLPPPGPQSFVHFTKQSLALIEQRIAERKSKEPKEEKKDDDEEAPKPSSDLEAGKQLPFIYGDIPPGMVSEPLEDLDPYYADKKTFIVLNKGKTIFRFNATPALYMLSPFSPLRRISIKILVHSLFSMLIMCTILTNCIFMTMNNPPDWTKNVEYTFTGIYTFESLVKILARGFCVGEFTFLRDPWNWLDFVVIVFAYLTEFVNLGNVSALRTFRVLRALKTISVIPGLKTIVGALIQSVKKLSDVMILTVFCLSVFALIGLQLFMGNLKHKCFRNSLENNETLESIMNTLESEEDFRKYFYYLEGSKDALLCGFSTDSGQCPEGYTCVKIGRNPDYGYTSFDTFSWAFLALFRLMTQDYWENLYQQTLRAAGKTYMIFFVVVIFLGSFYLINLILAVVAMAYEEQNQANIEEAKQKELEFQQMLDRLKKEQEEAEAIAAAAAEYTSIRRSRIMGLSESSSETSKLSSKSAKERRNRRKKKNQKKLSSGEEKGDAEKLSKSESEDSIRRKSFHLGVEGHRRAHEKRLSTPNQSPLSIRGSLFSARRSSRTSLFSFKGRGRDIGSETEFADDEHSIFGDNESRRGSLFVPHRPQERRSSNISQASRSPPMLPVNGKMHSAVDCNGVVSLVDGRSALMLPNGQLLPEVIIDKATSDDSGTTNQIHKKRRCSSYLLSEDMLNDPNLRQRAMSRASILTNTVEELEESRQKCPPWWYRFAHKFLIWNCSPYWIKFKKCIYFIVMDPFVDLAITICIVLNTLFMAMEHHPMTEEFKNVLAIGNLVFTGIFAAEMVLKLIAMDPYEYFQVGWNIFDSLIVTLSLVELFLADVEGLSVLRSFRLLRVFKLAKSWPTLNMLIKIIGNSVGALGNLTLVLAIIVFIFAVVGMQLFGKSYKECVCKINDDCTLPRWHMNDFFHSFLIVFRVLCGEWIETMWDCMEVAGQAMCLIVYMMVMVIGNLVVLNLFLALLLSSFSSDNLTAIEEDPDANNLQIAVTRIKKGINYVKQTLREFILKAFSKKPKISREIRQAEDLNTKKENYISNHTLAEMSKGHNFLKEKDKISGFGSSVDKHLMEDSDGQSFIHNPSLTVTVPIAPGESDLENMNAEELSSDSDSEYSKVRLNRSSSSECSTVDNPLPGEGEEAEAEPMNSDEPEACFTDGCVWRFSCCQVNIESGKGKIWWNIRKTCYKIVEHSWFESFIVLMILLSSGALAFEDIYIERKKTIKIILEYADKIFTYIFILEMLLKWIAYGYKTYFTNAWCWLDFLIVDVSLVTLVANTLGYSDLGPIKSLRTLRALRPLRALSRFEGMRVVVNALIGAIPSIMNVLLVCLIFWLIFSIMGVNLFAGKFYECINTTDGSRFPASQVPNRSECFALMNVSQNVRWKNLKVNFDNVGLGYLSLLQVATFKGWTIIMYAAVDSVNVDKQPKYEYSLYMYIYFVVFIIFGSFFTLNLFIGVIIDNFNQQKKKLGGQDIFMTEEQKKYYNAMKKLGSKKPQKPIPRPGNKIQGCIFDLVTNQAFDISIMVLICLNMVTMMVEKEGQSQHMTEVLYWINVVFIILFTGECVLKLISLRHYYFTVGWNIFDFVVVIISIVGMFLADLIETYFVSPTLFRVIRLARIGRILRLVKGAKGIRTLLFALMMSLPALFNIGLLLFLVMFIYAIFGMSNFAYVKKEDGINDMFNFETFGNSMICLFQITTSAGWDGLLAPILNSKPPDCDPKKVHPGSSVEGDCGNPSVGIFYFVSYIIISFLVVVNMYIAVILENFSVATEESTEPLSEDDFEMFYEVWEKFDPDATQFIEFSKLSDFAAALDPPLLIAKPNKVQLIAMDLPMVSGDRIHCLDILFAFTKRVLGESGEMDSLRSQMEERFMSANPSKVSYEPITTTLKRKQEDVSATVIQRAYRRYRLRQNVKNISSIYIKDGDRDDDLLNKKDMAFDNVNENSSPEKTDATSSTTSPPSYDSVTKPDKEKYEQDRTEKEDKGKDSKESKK

Structure (SMILES) | pIC50 (Nav 1.7) | pIC50 (Nav 1.5; [1]) | pIC50 (Nav 1.5)
COc1nc(-c2cccc(F)c2)ccc1-c1nccc2cc(S(=O)(=O)Nc3ccncn3)ccc12 [Example 363, 1-(6-(3-FLUOROPHENYL)-2-METHOXYPYRIDIN-3-YL)-N-(PYRIMIDIN-4-YL)ISOQUINOLINE-6-SULFONAMIDE] | 6.27 | < 4.52 | –
COc1cc(-c2cccc(F)c2)ccc1-c1nccc2cc(S(=O)(=O)Nc3nncs3)ccc12 [Example 354, 1-(3′-FLUORO-3-METHOXY-[1,1′-BIPHENYL]-4-YL)-N-(1,3,4-THIADIAZOL-2-YL)ISOQUINOLINE-6-SULFONAMIDE 2,2,2-TRIFLUOROACETATE] | 6.96 | < 4.52 | –
COc1cc(F)cc(-c2ccc(-c3nccc4cc(S(=O)(=O)Nc5ccncn5)ccc34)c(OC)c2)c1 [Example 485, 1-(3′-FLUORO-3,5′-DIMETHOXY-[1,1′-BIPHENYL]-4-YL)-N-(PYRIMIDIN-4-YL)ISOQUINOLINE-6-SULFONAMIDE] | 6.89 | < 4.52 | –
Cc1cc(Cl)ccc1-c1ccnc2cc(S(=O)(=O)Nc3ncns3)ccc12 [Example 322] | 6.48 | < 4.52 | –
COc1cc(C(F)(F)F)ccc1-c1ccnc2cc(S(=O)(=O)Nc3nccs3)c(C)cc12 [Example 326, 4-(2-METHOXY-4-(TRIFLUOROMETHYL)PHENYL)-6-METHYL-N-(THIAZOL-2-YL)QUINOLINE-7-SULFONAMIDE] | 6.18 | 5.60 | –
COc1cc(-c2cccc(F)c2)c(Cl)cc1-c1nccc2cc(S(=O)(=O)Nc3nncs3)ccc12 [Example 332, 1-(2-CHLORO-3′-FLUORO-5-METHOXY-[1,1′-BIPHENYL]-4-YL)-N-(1,3,4-THIADIAZOL-2-YL)ISOQUINOLINE-6-SULFONAMIDE] | 7.55 | 4.68 | –
COc1cc(-c2ccc(F)c(F)c2)c(F)cc1-c1nccc2cc(S(=O)(=O)Nc3nncs3)ccc12 [Example 365, N-(1,3,4-THIADIAZOL-2-YL)-1-(2,3′,4′-TRIFLUORO-5-METHOXY-[1,1′-BIPHENYL]-4-YL)ISOQUINOLINE-6-SULFONAMIDE] | 7.39 | < 4.52 | –
COc1ccc(Cl)cc1-c1n[nH]c(=O)c2cc(S(=O)(=O)Nc3nccs3)ccc12 [Example 501, 1-(5-CHLORO-2-METHOXYPHENYL)-4-OXO-N-(THIAZOL-2-YL)-3,4-DIHYDROPHTHALAZINE-6-SULFONAMIDE] | 6.91 | – | < 4.52
COc1ccc(-c2cccc(F)c2)cc1-c1ccnc2cc(S(=O)(=O)Nc3ccncn3)ccc12 [Example 321, 4-(3′-FLUORO-4-METHOXY-[1,1′-BIPHENYL]-3-YL)-N-(PYRIMIDIN-4-YL)QUINOLINE-7-SULFONAMIDE] | 6.60 | < 4.52 | –
COc1cc(C#N)ccc1-c1cccc2cc(S(=O)(=O)Nc3ncns3)ccc12 [Example 330] | 6.93 | < 4.52 | –
COc1cc(C(F)(F)F)ccc1-c1ncc(O)c2cc(S(=O)(=O)Nc3nccs3)ccc12 [Example 232, 4-HYDROXY-1-(2-METHOXY-4-(TRIFLUOROMETHYL)PHENYL)-N-(THIAZOL-2-YL)ISOQUINOLINE-6-SULFONAMIDE] | 6.42 | 4.69 | –
COc1cc(-c2cc(C)cc(Cl)c2)ccc1-c1nccc2cc(S(=O)(=O)Nc3ccncn3)ccc12 [Example 495, 1-(3′-CHLORO-3-METHOXY-5′-METHYL-[1,1′-BIPHENYL]-4-YL)-N-(PYRIMIDIN-4-YL)ISOQUINOLINE-6-SULFONAMIDE] | 7.02 | 4.72 | –
COc1cc(C(F)(F)F)ccc1-c1cnnc2cc(S(=O)(=O)Nc3nccs3)ccc12 [Example 259, 4-(2-METHOXY-4-(TRIFLUOROMETHYL)PHENYL)-N-(THIAZOL-2-YL)CINNOLINE-7-SULFONAMIDE] | 6.49 | < 4.52 | –
COc1nc(-c2ccc(C(F)(F)F)cc2OC)c2ccc(S(=O)(=O)Nc3nccs3)cc2n1 [Example 511, 2-methoxy-4-(2-methoxy-4-(trifluoromethyl)phenyl)-N-(thiazol-2-yl)quinazoline-7-sulfonamide] | 6.59 | < 4.52 | –
COc1nc(-c2cccc(F)c2)c(Cl)cc1-c1nccc2cc(S(=O)(=O)Nc3nncs3)ccc12 [Example 498, 1-(5-CHLORO-6-(3-FLUOROPHENYL)-2-METHOXYPYRIDIN-3-YL)-N-(1,3,4-THIADIAZOL-2-YL)ISOQUINOLINE-6-SULFONAMIDE] | 6.12 | < 4.52 | –
COc1cc(-c2cc(F)cc(F)c2)ccc1-c1nccc2cc(S(=O)(=O)Nc3cc(C)ncn3)ccc12 [Example 371, 1-(3′,5′-DIFLUORO-3-METHOXY-[1,1′-BIPHENYL]-4-YL)-N-(6-METHYLPYRIMIDIN-4-YL)ISOQUINOLINE-6-SULFONAMIDE] | 6.26 | < 4.52 | –
COc1cccc(-c2ccc(-c3nccc4cc(S(=O)(=O)Nc5ccncn5)ccc34)c(OC)c2)c1 [Example 467, 1-(3,3′-DIMETHOXY-[1,1′-BIPHENYL]-4-YL)-N-(PYRIMIDIN-4-YL)ISOQUINOLINE-6-SULFONAMIDE] | 6.69 | < 4.52 | –

Structure (SMILES) | pIC50 (Nav 1.7) | pIC50 (Nav 1.5; [1]) | pIC50 (Nav 1.5)
COc1ccc(Cl)cc1-c1n[nH]c(=O)c2cc(S(=O)(=O)Nc3ncns3)ccc12 [Example 505, 1-(5-CHLORO-2-METHOXYPHENYL)-4-OXO-N-(1,2,4-THIADIAZOL-5-YL)-3,4-DIHYDROPHTHALAZINE-6-SULFONAMIDE] | 6.59 | < 4.52 | –
COc1cc(F)ccc1-c1nccc2cc(S(=O)(=O)Nc3nccs3)ccc12 [Example 405, 1-(4-FLUORO-2-METHOXYPHENYL)-N-(THIAZOL-2-YL)ISOQUINOLINE-6-SULFONAMIDE] | 6.35 | < 4.52 | –
COc1cc(C(F)(F)F)ccc1-c1ncc(F)c2cc(S(=O)(=O)Nc3ncns3)ccc12 [Example 392, 4-FLUORO-1-(2-METHOXY-4-(TRIFLUOROMETHYL)PHENYL)-N-(1,2,4-THIADIAZOL-5-YL)ISOQUINOLINE-6-SULFONAMIDE] | 6.95 | < 4.52 | –
COc1cc(-c2ccc(Cl)c(F)c2)ccc1-c1nccc2cc(S(=O)(=O)Nc3ccncn3)ccc12 [Example 492, 1-(4′-CHLORO-3′-FLUORO-3-METHOXY-[1,1′-BIPHENYL]-4-YL)-N-(PYRIMIDIN-4-YL)ISOQUINOLINE-6-SULFONAMIDE] | 7.16 | < 4.52 | –
COc1cc(C(F)(F)F)ccc1-c1ccnc2cc(S(=O)(=O)Nc3nccs3)c(F)cc12 [Example 319, 6-FLUORO-4-(2-METHOXY-4-(TRIFLUOROMETHYL)PHENYL)-N-(THIAZOL-2-YL)QUINOLINE-7-SULFONAMIDE 2,2,2-TRIFLUOROACETATE] | 6.39 | 5.55 | –
COc1cc(-c2cc(F)cc(F)c2)ccc1-c1nccc2cc(S(=O)(=O)Nc3nncs3)ccc12 [Example 355, 1-(3′,5′-DIFLUORO-3-METHOXY-[1,1′-BIPHENYL]-4-YL)-N-(1,3,4-THIADIAZOL-2-YL)ISOQUINOLINE-6-SULFONAMIDE 2,2,2-TRIFLUOROACETATE] | 7.32 | < 4.52 | –
COc1cc(-c2cc(C)cc(F)c2)ccc1-c1nccc2cc(S(=O)(=O)Nc3ccncn3)ccc12 [Example 472, 1-(3′-FLUORO-3-METHOXY-5′-METHYL-[1,1′-BIPHENYL]-4-YL)-N-(PYRIMIDIN-4-YL)ISOQUINOLINE-6-SULFONAMIDE] | 7.20 | < 4.52 | –
COc1ccc(-c2cccc(F)c2)cc1-c1nccc2cc(S(=O)(=O)Nc3ccncn3)ccc12 [Example 348, 1-(3′-FLUORO-4-METHOXY-[1,1′-BIPHENYL]-3-YL)-N-(PYRIMIDIN-4-YL)ISOQUINOLINE-6-SULFONAMIDE] | 6.99 | < 4.52 | –
N#CCOc1cc(F)ccc1-c1nccc2cc(S(=O)(=O)Nc3nccs3)ccc12 [Example 192, 1-(2-(CYANOMETHOXY)-4-FLUOROPHENYL)-N-(THIAZOL-2-YL)ISOQUINOLINE-6-SULFONAMIDE] | 6.48 | < 4.52 | –
COc1cc(-c2ccc(C)cc2)ccc1-c1nccc2cc(S(=O)(=O)Nc3ccncn3)ccc12 [Example 443, 1-(3-METHOXY-4′-METHYL-[1,1′-BIPHENYL]-4-YL)-N-(PYRIMIDIN-4-YL)ISOQUINOLINE-6-SULFONAMIDE] | 6.55 | < 4.52 | –
COc1cc(C(F)F)c(C2CC2)cc1-c1nccc2cc(S(=O)(=O)Nc3ccncn3)ccc12 [Example 459, 1-(5-CYCLOPROPYL-4-(DIFLUOROMETHYL)-2-METHOXYPHENYL)-N-(PYRIMIDIN-4-YL)ISOQUINOLINE-6-SULFONAMIDE] | 6.27 | < 4.52 | –
COc1cc(F)ccc1-c1ncc(F)c2cc(S(=O)(=O)Nc3ncns3)ccc12 [Example 394, 4-FLUORO-1-(4-FLUORO-2-METHOXYPHENYL)-N-(1,2,4-THIADIAZOL-5-YL)ISOQUINOLINE-6-SULFONAMIDE] | 6.47 | < 4.52 | –
COc1cc(-c2ccc(-c3nccc4cc(S(=O)(=O)Nc5ccncn5)ccc34)c(OC)c2)ccc1F [Example 484, 1-(4′-FLUORO-3,3′-DIMETHOXY-[1,1′-BIPHENYL]-4-YL)-N-(PYRIMIDIN-4-YL)ISOQUINOLINE-6-SULFONAMIDE] | 6.75 | < 4.52 | –
COc1cc(-c2cc(F)cc(F)c2)ccc1-c1ncnc2cc(S(=O)(=O)Nc3nncs3)ccc12 [Example 531, 4-(3′,5′-DIFLUORO-3-METHOXY-[1,1′-BIPHENYL]-4-YL)-N-(1,3,4-THIADIAZOL-2-YL)QUINAZOLINE-7-SULFONAMIDE] | 6.64 | < 4.52 | –
COc1cc(-c2cccc(C(F)(F)F)c2)c(C#N)cc1-c1nccc2cc(S(=O)(=O)Nc3nncs3)ccc12 [Example 339, 1-(2-CYANO-5-METHOXY-3′-(TRIFLUOROMETHYL)-[1,1′-BIPHENYL]-4-YL)-N-(1,3,4-THIADIAZOL-2-YL)ISOQUINOLINE-6-SULFONAMIDE] | 7.51 | < 4.52 | –
COc1cc(Cl)ccc1-c1ncnc2cc(S(=O)(=O)Nc3ncns3)ccc12 [Example 524, 4-(4-CHLORO-2-METHOXYPHENYL)-N-(1,2,4-THIADIAZOL-5-YL)QUINAZOLINE-7-SULFONAMIDE] | 7.00 | < 4.52 | –
